Laboratory results reported in the supplement of paper PMC11061612.

Experiments:
[1] = compound: Nc1ccn([C@@H]2O[C@H](CO)[C@@H](O)C2(F)F)c(=O)n1 [Gemcitabine]; details: max 0.3 µM
How it was run: (§1)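 Following 24 hours at 37°C and 5% CO2, cancer cell lines in 1536-well plates with 7.5 μl DMEM/F12 or RPMI and 10% FBS were dosed for 72 hours, final DMSO typically being 0.2%. CellTiter-Glo 2.0 luminescence, scaled between blank-well and DMSO-well means, gave the viability readout. Dose responses were fitted to a two-parameter logistic curve with a non-linear mixed effects model, and the single-agent IC50 was derived from this fit.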

[2] = compound: C=CCn1c(=O)c2cnc(Nc3ccc(N4CCN(C)CC4)cc3)nc2n1-c1cccc(C(C)(C)O)n1 [AZD1775]; details: max 3 µM
How it was run: as §1

[3] = compound: COc1cc2ncnc(Nc3ccc(F)c(Cl)c3)c2cc1OCCCN1CCOCC1 [Gefitinib]; details: max 10 µM
How it was run: as §1

[4] = compound: COc1cc([C@@H]2c3cc4c(cc3[C@@H](O[C@@H]3O[C@@H]5CO[C@@H](C)O[C@H]5[C@H](O)[C@H]3O)[C@H]3COC(=O)[C@H]23)OCO4)cc(OC)c1O [Etoposide]; details: max 10 µM
How it was run: as §1

[5] = compound: N#Cc1cnc(Nc2cc(NC[C@H]3CNCCO3)c(C(F)(F)F)cn2)cn1 [SRA737]; details: max 10 µM
How it was run: as §1

[6] = compound: CCc1c2c(nc3ccc(O)cc13)-c1cc3c(c(=O)n1C2)COC(=O)[C@]3(O)CC [SN-38]; details: max 0.3 µM
How it was run: as §1

[7] = compound: C1CN(CCC1(C(=O)N[C@@H](CCO)C2=CC=C(C=C2)Cl)N)C3=NC=NC4=C3C=CN4 [AZD5363]; details: max 10 µM
How it was run: as §1

[8] = compound: CC(=O)Nc1cccc(-n2c(=O)n(C3CC3)c(=O)c3c(Nc4ccc(I)cc4F)n(C)c(=O)c(C)c32)c1 [Trametinib]; details: max 1 µM
How it was run: as §1

[9] = compound: COc1nnc2ccc(N3CCC(c4ccc(OCCN5CCN(C)C(=O)[C@H]5C)cc4)CC3)nn12 [AZD5153]; details: max 1 µM
How it was run: as §1

[10] = compound: CN(C)CCCOc1ccc(-c2ccc3ncc4c(c3c2)n(C2CCOCC2)c(=O)n4C)cn1 [AZD0156]; details: max 3 µM
How it was run: as §1

[11] = compound: O=C(c1cc(Cc2n[nH]c(=O)c3ccccc23)ccc1F)N1CCN(C(=O)C2CC2)CC1 [Olaparib]; details: max 10 µM
How it was run: as §1

[12] = compound: CC1=C(C(=CC=C1)Cl)NC(=O)C2=CN=C(S2)NC3=CC(=NC(=N3)C)N4CCN(CC4)CCO [Dasatinib]; details: max 2 µM
How it was run: as §1

[13] = compound: Cc1cc2ncnn2cc1Nc1ncc2c(n1)n(C1CCOCC1)c(=O)n2C [AZD7648]; details: max 10 µM
How it was run: as §1

[14] = compound: Cn1cnc2c(F)c(Nc3ccc(Br)cc3Cl)c(C(=O)NOCCO)cc21 [Selumetinib]; details: max 10 µM
How it was run: as §1

[15] = compound: CN(CC[C@H](CSC1=CC=CC=C1)NC2=C(C=C(C=C2)S(=O)(=O)NC(=O)C3=CC=C(C=C3)N4CCC(CC4)[C@H](C5=CC=CC=C5C6=CC=C(C=C6)Cl)O)S(=O)(=O)C(F)(F)F)CCO [AZD4320]; details: max 1 µM
How it was run: as §1

[16] = compound: CC1(C)CCC(CN2CCN(c3ccc(C(=O)NS(=O)(=O)c4ccc(NCC5CCOCC5)c([N+](=O)[O-])c4)c(Oc4cnc5[nH]ccc5c4)c3)CC2)=C(c2ccc(Cl)cc2)C1 [Venetoclax]; details: max 1 µM
How it was run: as §1

[17] = compound: CC(=O)O[C@H]1C(=O)[C@@]2(C)[C@H]([C@H](OC(=O)c3ccccc3)[C@]3(O)C[C@H](OC(=O)[C@H](O)[C@@H](NC(=O)c4ccccc4)c4ccccc4)C(C)=C1C3(C)C)[C@]1(OC(C)=O)CO[C@@H]1C[C@@H]2O [Paclitaxel]; details: max 3 µM
How it was run: as §1

[18] = compound: C[C@@H](Nc1cc(F)cc(F)c1)c1cc(C(=O)N(C)C)cc2c(=O)cc(N3CCOCC3)oc12 [AZD8186]; details: max 10 µM
How it was run: as §1

[19] = compound: CS(=O)(=O)CCNCc1ccc(-c2ccc3ncnc(Nc4ccc(OCc5cccc(F)c5)c(Cl)c4)c3c2)o1 [Lapatinib]; details: max 10 µM
How it was run: as §1

[20] = compound: O=C(Nc1ccc2[nH]nc(-c3ccncc3)c2c1)[C@@H]1CCN(CC(=O)N2CCN(c3ccc(-c4ncccn4)cc3)CC2)C1; details: max 5 µM
How it was run: as §1

[21] = compound: CC(C)n1c(=O)n(C)c2cnc3cc(F)c(-c4ccc(OCCCN5CCCCC5)nc4)cc3c21 [AZD1390]; details: max 0.3 µM
How it was run: as §1

[22] = compound: Cc1c2c(nn1C)CSCc1cc(n(C)n1)CSc1cc(c3ccccc3c1)OCCCc1c(C(=O)O)n(C)c3c-2c(Cl)ccc13 [AZD5991]; details: max 1 µM
How it was run: as §1

[23] = compound: NC1(c2ccc(-c3nc4ccn5c(=O)[nH]nc5c4cc3-c3ccccc3)cc2)CCC1 [MK-2206]; details: max 10 µM
How it was run: as §1

[24] = compound: CCN(CCO)CCCOc1ccc2c(Nc3cc(CC(=O)Nc4cccc(F)c4)[nH]n3)ncnc2c1 [AZD2811]; details: max 1 µM
How it was run: as §1

[25] = compound: CC(=O)c1c(C)c2cnc(Nc3ccc(N4CCNCC4)cn3)nc2n(C2CCCC2)c1=O [Palbociclib]; details: max 10 µM
How it was run: as §1

[26] = compound: Cc1nc(-c2cn3c(n2)-c2ccc(-c4cnn(C(C)(C)C(N)=O)c4)cc2OCC3)n(C(C)C)n1 [Taselisib]; details: max 10 µM
How it was run: as §1

[27] = compound: C1CC(C1)(C(=O)[O-])C(=O)[O-].N.N.[Pt+2] [Carboplatin]; details: max 10 µM
How it was run: as §1

[28] = compound: O=c1[nH]cc(F)c(=O)[nH]1 [5-Fluorouracil]; details: max 20 µM
How it was run: as §1

[29] = compound: C[C@@H](Oc1cc(-c2cnn(C3CCNCC3)c2)cnc1N)c1c(Cl)ccc(F)c1Cl [Crizotinib]; details: max 10 µM
How it was run: as §1

[30] = compound: C[C@@H]1COCCN1C2=NC(=NC(=C2)C3(CC3)[S@](=N)(=O)C)C4=C5C=CNC5=NC=C4 [AZD6738]; details: max 10 µM
How it was run: as §1

[31] = compound: C[C@@H](c1ccc2nccn2c1)n1nnc2ncc(-c3cnn(C)c3)nc21 [Savolitinib]; details: max 1 µM
How it was run: as §1

[32] = compound: COc1cccc2c1C(=O)c1c(O)c3c(c(O)c1C2=O)C[C@@](O)(C(=O)CO)C[C@@H]3O[C@H]1C[C@H](N)[C@H](O)[C@H](C)O1 [Doxorubicin]; details: max 1 µM
How it was run: as §1

[33] = compound: COc1cccc(OCCCN)c1-c1cc(Nc2cnc(C#N)cn2)n[nH]1 [Prexasertib]; details: max 1 µM
How it was run: as §1

[34] = compound: COc1cc(Nc2ncc3c(n2)-c2ccc(Cl)cc2C(c2c(F)cccc2OC)=NC3)ccc1C(=O)O [Alisertib]; details: max 10 µM
How it was run: as §1

[35] = compound: CC1=CN2[C@@H](C1)C=NC3=CC(=C(C=C3C2=O)OC)OCCCCCOC4=C(C=C5C(=C4)N=C[C@@H]6CC(=CN6C5=O)C)OC [SG3199]; details: max 0.001 µM
How it was run: as §1

Cell Line	IC50, cell viability 72 h [1]	IC50, cell viability 72 h [2]	IC50, cell viability 72 h [3]	IC50, cell viability 72 h [4]	IC50, cell viability 72 h [5]	IC50, cell viability 72 h [6]	IC50, cell viability 72 h [7]	IC50, cell viability 72 h [8]	IC50, cell viability 72 h [9]	IC50, cell viability 72 h [10]	IC50, cell viability 72 h [11]	IC50, cell viability 72 h [12]	IC50, cell viability 72 h [13]	IC50, cell viability 72 h [14]	IC50, cell viability 72 h [15]	IC50, cell viability 72 h [16]	IC50, cell viability 72 h [17]	IC50, cell viability 72 h [18]	IC50, cell viability 72 h [19]	IC50, cell viability 72 h [20]	IC50, cell viability 72 h [21]	IC50, cell viability 72 h [22]	IC50, cell viability 72 h [23]	IC50, cell viability 72 h [24]	IC50, cell viability 72 h [25]	IC50, cell viability 72 h [26]	IC50, cell viability 72 h [27]	IC50, cell viability 72 h [28]	IC50, cell viability 72 h [29]	IC50, cell viability 72 h [30]	IC50, cell viability 72 h [31]	IC50, cell viability 72 h [32]	IC50, cell viability 72 h [33]	IC50, cell viability 72 h [34]	IC50, cell viability 72 h [35]
HPAF-II (Pancreatic Carcinoma)	> 300 nM	1890 nM	> 10000 nM	> 10000 nM	> 10000 nM	> 300 nM	> 10000 nM	101 nM	> 1000 nM	> 3000 nM	> 10000 nM	> 2000 nM	> 10000 nM	8240 nM	766 nM	> 1000 nM	625 nM	> 10000 nM	> 10000 nM	> 5000 nM	> 300 nM	> 1000 nM	> 10000 nM	> 1000 nM	> 10000 nM	> 10000 nM	> 10000 nM	> 20000 nM	> 10000 nM	> 10000 nM	> 1000 nM	–	–	–	–
ES6 (Ewing's Sarcoma)	268 nM	> 3000 nM	> 10000 nM	> 10000 nM	> 10000 nM	> 300 nM	> 10000 nM	> 1000 nM	> 1000 nM	> 3000 nM	> 10000 nM	> 2000 nM	> 10000 nM	> 10000 nM	> 1000 nM	> 1000 nM	> 3000 nM	> 10000 nM	> 10000 nM	> 5000 nM	> 300 nM	> 1000 nM	> 10000 nM	> 1000 nM	> 10000 nM	3630 nM	> 10000 nM	> 20000 nM	> 10000 nM	> 10000 nM	> 1000 nM	> 1000 nM	481 nM	> 10000 nM	> 1 nM
CPC-N (Small Cell Lung Carcinoma)	144 nM	297 nM	> 10000 nM	5130 nM	1760 nM	> 300 nM	> 10000 nM	> 1000 nM	774 nM	> 3000 nM	> 10000 nM	> 2000 nM	> 10000 nM	> 10000 nM	178 nM	721 nM	21.1 nM	> 10000 nM	> 10000 nM	> 5000 nM	> 300 nM	> 1000 nM	> 10000 nM	59.8 nM	> 10000 nM	8220 nM	> 10000 nM	> 20000 nM	6990 nM	2130 nM	> 1000 nM	887 nM	4.03 nM	670 nM	> 1 nM
COR-L88 (Small Cell Lung Carcinoma)	> 300 nM	1760 nM	> 10000 nM	> 10000 nM	> 10000 nM	> 300 nM	> 10000 nM	> 1000 nM	> 1000 nM	> 3000 nM	> 10000 nM	> 2000 nM	> 10000 nM	> 10000 nM	110 nM	> 1000 nM	> 3000 nM	> 10000 nM	> 10000 nM	> 5000 nM	> 300 nM	> 1000 nM	> 10000 nM	> 1000 nM	> 10000 nM	> 10000 nM	> 10000 nM	> 20000 nM	> 10000 nM	> 10000 nM	> 1000 nM	> 1000 nM	45.9 nM	> 10000 nM	> 1 nM
KALS-1 (Glioblastoma)	297 nM	1190 nM	> 10000 nM	> 10000 nM	2710 nM	262 nM	> 10000 nM	260 nM	254 nM	> 3000 nM	> 10000 nM	1160 nM	> 10000 nM	> 10000 nM	> 1000 nM	> 1000 nM	17.1 nM	> 10000 nM	> 10000 nM	1270 nM	> 300 nM	> 1000 nM	> 10000 nM	> 1000 nM	> 10000 nM	> 10000 nM	> 10000 nM	> 20000 nM	> 10000 nM	2390 nM	> 1000 nM	> 1000 nM	10.9 nM	> 10000 nM	> 1 nM
KP-4 (Pancreatic Carcinoma)	–	1340 nM	> 10000 nM	1730 nM	> 10000 nM	31.6 nM	> 10000 nM	> 1000 nM	818 nM	> 3000 nM	> 10000 nM	> 2000 nM	> 10000 nM	> 10000 nM	> 1000 nM	> 1000 nM	6.9 nM	> 10000 nM	> 10000 nM	> 5000 nM	> 300 nM	> 1000 nM	> 10000 nM	> 1000 nM	> 10000 nM	> 10000 nM	> 10000 nM	> 20000 nM	2720 nM	> 10000 nM	> 1000 nM	> 1000 nM	> 1000 nM	5350 nM	> 1 nM
